Assay results reported in PubChem BioAssay AID2060604 (Molecular Pharmacology Branch, DTP, NCI, 2025).
Where “and” joins values, the source holds several entries; their conditions need not be identical. Equal values may be shown once. Each block holds one molecule with its values, some of them ahead of it.

Test system: 379773-124-R-J2-PDC complex spheroids, viability % test/control
Experiment: Anticancer human tumor 379773-124-R-J2-PDC patient-derived endometrial carcinoma cell line growth inhibition [CLK]
Settings: for viability, T/C: stronger effect = lower value
How it was run: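 Patient-derived tumor cells grown as complex spheroids with HUVEC endothelial cells and mesenchymal stem cells, treated with drug combinations. Concentrations descend in half-log steps from near clinical Cmax, or from 10 microM if Cmax unknown.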

[1] = curve of first compound, second compound 0.0316 µM
[2] = curve of first compound, second compound 0.1 µM
[3] = curve of first compound, second compound 0.316 µM
[4] = curve of first compound, second compound 1 µM
[5] = curve of first compound, second compound 3.16 µM
[6] = curve of first compound, second compound 10 µM
[7] = second compound 0.0316 µM, first compound 0.0316 µM
[8] = second compound 0.0316 µM, first compound 0.1 µM
[9] = second compound 0.0316 µM, first compound 0.316 µM
[10] = second compound 0.0316 µM, first compound 1 µM
[11] = second compound 0.0316 µM, first compound 3.16 µM
[12] = second compound 0.0316 µM, first compound 10 µM
[13] = second compound 0.1 µM, first compound 0.0316 µM
[14] = second compound 0.1 µM, first compound 0.1 µM
[15] = second compound 0.1 µM, first compound 0.316 µM
[16] = second compound 0.1 µM, first compound 1 µM
[17] = second compound 0.1 µM, first compound 3.16 µM
[18] = second compound 0.1 µM, first compound 10 µM
[19] = second compound 0.316 µM, first compound 0.0316 µM
[20] = second compound 0.316 µM, first compound 0.1 µM
[21] = second compound 0.316 µM, first compound 0.316 µM
[22] = second compound 0.316 µM, first compound 1 µM
[23] = second compound 0.316 µM, first compound 3.16 µM
[24] = second compound 0.316 µM, first compound 10 µM
[25] = second compound 1 µM, first compound 0.0316 µM
[26] = second compound 1 µM, first compound 0.1 µM
[27] = second compound 1 µM, first compound 0.316 µM
[28] = second compound 1 µM, first compound 1 µM
[29] = second compound 1 µM, first compound 3.16 µM
[30] = second compound 1 µM, first compound 10 µM
[31] = second compound 3.16 µM, first compound 0.0316 µM
[32] = second compound 3.16 µM, first compound 0.1 µM
[33] = second compound 3.16 µM, first compound 0.316 µM
[34] = second compound 3.16 µM, first compound 1 µM
[35] = second compound 3.16 µM, first compound 3.16 µM
[36] = second compound 3.16 µM, first compound 10 µM
[37] = second compound 10 µM, first compound 0.0316 µM
[38] = second compound 10 µM, first compound 0.1 µM
[39] = second compound 10 µM, first compound 0.316 µM
[40] = second compound 10 µM, first compound 1 µM
[41] = second compound 10 µM, first compound 3.16 µM
[42] = second compound 10 µM, first compound 10 µM
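Also: compound exposure lasted seven days before the viability readout.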
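For viability, T/C in this document: 100% = DMSO vehicle control wells.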

- IC50 [1]: 2020 nM
- IC50 [2]: < 31.6 nM
- IC50 [3]: < 31.6 nM
- IC50 [4]: < 31.6 nM
- IC50 [5]: < 31.6 nM
- IC50 [6]: < 31.6 nM
SMILES: C=C(F)C(=O)N1CCN(c2nc(OCC3CCCN3C)nc3c2CCN(c2cccc4cccc(Cl)c24)C3)CC1CC#N (stereo not drawn) + CNC(=O)c1ccc(Nc2nc(OC3CCCC3)c3c(-c4ccc5nc(C)oc5c4)c[nH]c3n2)c(OC)c1
- viability, T/C [7]: 69.1%
- viability, T/C [8]: 63.1%
- viability, T/C [9]: 72.3%
- viability, T/C [10]: 78%
- viability, T/C [11]: 36.7%
- viability, T/C [12]: 0.16%
- viability, T/C [13]: 35.7%
- viability, T/C [14]: 42.1%
- viability, T/C [15]: 42.7%
- viability, T/C [16]: 39.8%
- viability, T/C [17]: 26.7%
- viability, T/C [18]: 0.13%
- viability, T/C [19]: 37.1%
- viability, T/C [20]: 41.4%
- viability, T/C [21]: 32.4%
- viability, T/C [22]: 39%
- viability, T/C [23]: 16.2%
- viability, T/C [24]: 0.17%
- viability, T/C [25]: 25.5%
- viability, T/C [26]: 31.4%
- viability, T/C [27]: 34.9%
- viability, T/C [28]: 34.5%
- viability, T/C [29]: 10.4%
- viability, T/C [30]: 0.13%
- viability, T/C [31]: 30.2%
- viability, T/C [32]: 35.3%
- viability, T/C [33]: 35.7%
- viability, T/C [34]: 35%
- viability, T/C [35]: 14.3%
- viability, T/C [36]: 2.42%
- viability, T/C [37]: 31.6%
- viability, T/C [38]: 32.9%
- viability, T/C [39]: 27.7%
- viability, T/C [40]: 27.3%
- viability, T/C [41]: 9.27%
- viability, T/C [42]: 0.53%

- IC50 (curve of compound): > 1000 nM
SMILES: CCN1CCN(Cc2ccc(Nc3ncc(F)c(-c4cc(F)c5nc(C)n(C(C)C)c5c4)n3)nc2)CC1
- viability, T/C (compound 0.00316 µM): 87% and 87.5%
- viability, T/C (compound 0.01 µM): 81.6% and 73%
- viability, T/C (compound 0.0316 µM): 83.8% and 93.2%
- viability, T/C (compound 0.1 µM): 110% and 88.4%
- viability, T/C (compound 0.316 µM): 89.1% and 101%
- viability, T/C (compound 1 µM): 81% and 78%

- IC50 (curve of compound): > 10000 nM
SMILES: C=CC(=O)N1CCN(c2nc(=O)n(-c3c(C)ccnc3C(C)C)c3nc(-c4c(O)cccc4F)c(F)cc23)C(C)C1 (stereo not drawn)
- viability, T/C (compound 0.0316 µM): 93.1% and 85.7%
- viability, T/C (compound 0.1 µM): 82.4% and 92.2%
- viability, T/C (compound 0.316 µM): 88.2% and 84.4%
- viability, T/C (compound 1 µM): 107% and 91.6%
- viability, T/C (compound 3.16 µM): 95.7% and 98.6%
- viability, T/C (compound 10 µM): 92.6% and 94.5%

SMILES: Nc1ccn(C2OC(CO)C(O)C2(F)F)c(=O)n1 (stereo not drawn) + CN1CCN(c2cc(C(=O)Nc3cc4cc(-c5cnn(C)c5)ccc4cn3)ccn2)CC1
- IC50 [1]: < 31.6 nM
- IC50 [2]: < 31.6 nM
- IC50 [3]: < 31.6 nM
- IC50 [4]: < 31.6 nM
- IC50 [5]: < 31.6 nM
- IC50 [6]: < 31.6 nM
- viability, T/C [7]: 10.9%
- viability, T/C [8]: 5.93%
- viability, T/C [9]: 5%
- viability, T/C [10]: 6.45%
- viability, T/C [11]: 6.59%
- viability, T/C [12]: 3.28%
- viability, T/C [13]: 10.4%
- viability, T/C [14]: 5.09%
- viability, T/C [15]: 4.66%
- viability, T/C [16]: 5.3%
- viability, T/C [17]: 4.72%
- viability, T/C [18]: 1.97%
- viability, T/C [19]: 7.96%
- viability, T/C [20]: 4.03%
- viability, T/C [21]: 2.64%
- viability, T/C [22]: 2.49%
- viability, T/C [23]: 1.51%
- viability, T/C [24]: 0.83%
- viability, T/C [25]: 0.1%
- viability, T/C [26]: 0.12%
- viability, T/C [27]: 0.11%
- viability, T/C [28]: 0.05%
- viability, T/C [29]: 1.02%
- viability, T/C [30]: 0.05%
- viability, T/C [31]: 0.08%
- viability, T/C [32]: 0.11%
- viability, T/C [33]: 0.12%
- viability, T/C [34]: 0.07%
- viability, T/C [35]: 0.82%
- viability, T/C [36]: 0.09%
- viability, T/C [37]: 0.18%
- viability, T/C [38]: 1.56%
- viability, T/C [39]: 0.87%
- viability, T/C [40]: 1.76%
- viability, T/C [41]: 0.56%
- viability, T/C [42]: 0.13%
